Laboratory results published in the supplement of paper PMC3974653.
Where a name gives a salt, the structure may show the parent alone.

Test system: MTT (mouse pheochromocytoma)
Experiment: IC50 of cell viability (ATP content)
Conditions: (24 or 48 h)
Outline: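 Each well of a white 1536-well plate received 5 µl of MTT mouse pheochromocytoma cells at 200,000 cells/ml in DMEM containing 5% FBS and 1% horse serum. After overnight culture at 37°C, 5% CO2, cells were exposed for 24 or 48 hrs to 23 nl of library compound in DMSO, pinned at 8 final concentrations from 0.5 nM to 46 µM. CellTiter-Glo luminescence was read after 15 minutes, and IC50 was obtained from a four-parameter logistic fit of signals normalised to positive-control and DMSO wells.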

SMILES: CN1CCC[C@@H]1CCO[C@](C)(c1ccccc1)c1ccc(Cl)cc1 [Clemastine fumarate]
- IC50 of cell viability: > 46 µM

SMILES: Clc1ccc(Cn2c(CN3CCCC3)nc3ccccc32)cc1 [Clemizole hydrochloride]
- IC50 of cell viability: > 46 µM

SMILES: C[N@@+]12CCC(CC1)[C@@H](C2)OC(=O)C(O)(C3=CC=CC=C3)C4=CC=CC=C4 [Clidinium bromide]
- IC50 of cell viability: > 46 µM

SMILES: CC(C)(C)C(=O)C(Oc1ccc(Cl)cc1)n1ccnc1 (centres undefined) [Climbazole]
- IC50 of cell viability: > 46 µM

SMILES: CCC[C@@H]1CC(C(=O)NC(C2O[C@H](SC)C(OP(=O)(O)O)[C@H](O)[C@H]2O)[C@H](C)Cl)N(C)C1 (some centres undefined) [Clindamycin 2-phosphate]
- IC50 of cell viability: > 46 µM

SMILES: CCC[C@H]1C[C@H](C(=O)N[C@@H]([C@@H]2O[C@@H](SC)[C@@H](O)[C@@H](O)[C@H]2O)[C@H](C)Cl)N(C)C1 [Clindamycin hydrochloride]
- IC50 of cell viability: > 46 µM

SMILES: CCCCCCCCCCCCCCCC(=O)O[C@@H]1[C@@H](O)[C@@H](O)C(C(NC(=O)[C@H]2C[C@@H](CCC)CN2C)C(C)Cl)O[C@@H]1SC (some centres undefined) [Clindamycin palmitate]
- IC50 of cell viability: > 46 µM

SMILES: C[C@@H]1C[C@@H]2[C@H]3C[C@@H](F)\C4=C\C(=O)\C=C/[C@]4(C)[C@@]3(Cl)[C@@H](O)C[C@@]2(C)[C@@H]1C(=O)COC(=O)C(C)(C)C [Clocortolone pivalate]
- IC50 of cell viability: > 46 µM

SMILES: O=P([O-])(O)C(Cl)(Cl)P(=O)([O-])O.[Na+].[Na+] [Clodronic acid]
- IC50 of cell viability: > 46 µM

SMILES: CC(C)/N=c1\cc2n(-c3ccc(Cl)cc3)c3ccccc3nc-2cc1Nc1ccc(Cl)cc1 [Clofazimine]
- IC50 of cell viability: > 46 µM

SMILES: N[S+](=O)([O-])c1ccc(Cl)c([S+](N)(=O)[O-])c1 [Clofenamide]
- IC50 of cell viability: > 46 µM

SMILES: O=C(CCl)c1ccc(Oc2ccc(C(=O)CCl)cc2)cc1 [Clofenoxyde]
- IC50 of cell viability: > 46 µM

SMILES: CCOC(=O)C(C)(C)Oc1ccc(Cl)cc1 [Clofibrate]
- IC50 of cell viability: > 46 µM

SMILES: CC(C)(Oc1ccc(Cl)cc1)C(=O)O [Clofibric_acid]
- IC50 of cell viability: > 46 µM

SMILES: O=C(Nc1ccc(Cl)cc1)Nc1ccc(Cl)c(C(F)(F)F)c1 [Cloflucarban]
- IC50 of cell viability: > 46 µM

SMILES: CCOC(=O)NC(C)(C)Cc1ccc(Cl)cc1 [Cloforex]
- IC50 of cell viability: > 46 µM

SMILES: COc1ccc2c(C(=O)c3ccc(Cl)cc3)c(C)n(CC(=O)O)c2c1 [Clometacine]
- IC50 of cell viability: > 46 µM

SMILES: C[C@@H]1CCC[C@H](C)N1NC(=O)c1ccc(Cl)c([S+](N)(=O)[O-])c1 [Clopamide]
- IC50 of cell viability: > 46 µM

SMILES: Clc1ccc([C@@H](OCCN2CCCCC2)c2ccccc2)cc1 [Cloperastine hydrochloride]
- IC50 of cell viability: > 46 µM

SMILES: Cc1cc(CC(=O)O)c(C)n1-c1ccc(Cl)cc1 [Clopirac]
- IC50 of cell viability: > 46 µM

SMILES: C#CCN(C)CCCOc1ccc(Cl)cc1Cl.Cl [Clorgyline hydrochloride]
- IC50 of cell viability: > 46 µM

SMILES: O=C1c2ccccc2C(=O)C1c1ccc(Cl)cc1 [Clorindione]
- IC50 of cell viability: > 46 µM

SMILES: Oc1ccc(Cl)cc1Cc1ccccc1 [Clorophene]
- IC50 of cell viability: > 46 µM

SMILES: Nc1cc(C(Cl)=C(Cl)Cl)c([S+](N)(=O)[O-])cc1[S+](N)(=O)[O-] [Clorsulon]
- IC50 of cell viability: > 46 µM

SMILES: C[C@]12CCC3C(CCC4=C(Cl)C(=O)CC[C@@]43C)C1CCC2O (some centres undefined) [Clostebol]
- IC50 of cell viability: > 46 µM

SMILES: CN1CCN(C2=Nc3ccccc3Sc3ccc(Cl)cc32)CC1 [Clothiapine]
- IC50 of cell viability: > 46 µM

SMILES: Clc1ccccc1C(c1ccccc1)(c1ccccc1)n1ccnc1 [Clotrimazole]
- IC50 of cell viability: > 46 µM

SMILES: [Na+].CC1=C(C(=O)N[C@H]2[C@H]3SC(C)(C)[C@H]([N@]3C2=O)C([O-])=O)C(=NO1)C4=C(Cl)C=CC=C4 [Cloxacillin sodium salt]
- IC50 of cell viability: > 46 µM

SMILES: O.O.O.O.O.O.O.O=S(=O)([O-])[O-].[Co+2] [Cobalt sulfate heptahydrate]
- IC50 of cell viability: > 46 µM

SMILES: COC1=C2OC3C(O)\C=C/C4[C@H]5CC(=C2[C@@]34CCN5C)C=C1 (some centres undefined) [Codeine]
- IC50 of cell viability: > 46 µM

SMILES: COC1=C(OC)C(=O)C(C/C=C(\C)CC/C=C(\C)CC/C=C(\C)CC/C=C(/C)CC/C=C(\C)CC/C=C(\C)CC/C=C(\C)CC/C=C(\C)CC/C=C(\C)CCC=C(C)C)=C(C)C1=O [Coenzyme Q10]
- IC50 of cell viability: > 46 µM

SMILES: CCCCC(CC)COC(=O)CC(C(=O)OCC(CC)CCCC)S(=O)(=O)[O-] (centres undefined) [Colace]
- IC50 of cell viability: > 46 µM

SMILES: CC(C)CCCC(C)C1CC(=O)C2=C3CCC4CC(O)CCC4(C)C3CCC21C (centres undefined) [Colestolone]
- IC50 of cell viability: > 46 µM

SMILES: C[C@]\12CCC(=O)\C=C1CC[C@@H]3[C@@H]2CC[C@@]4(C)[C@H]3CC[C@]4(O)C(=O)CO [Cortexolone]
- IC50 of cell viability: > 46 µM

SMILES: C[C@]12C[C@H](O)[C@H]3[C@@H](CCC/4=C/C(=O)CC[C@]34C)[C@@H]1CC[C@@H]2C(=O)CO [Corticosterone]
- IC50 of cell viability: > 46 µM

SMILES: CC(=O)OCC(=O)[C@@]1(O)CC[C@H]2[C@@H]3CCC/4=C/C(=O)CC[C@]4(C)[C@H]3C(=O)C[C@]12C [Cortisone 21-acetate]
- IC50 of cell viability: > 46 µM

SMILES: O=C\1OC2=C(C=CC=C2)\C=C1 [Coumarin]
- IC50 of cell viability: > 46 µM

SMILES: OC(COC1=CC=CC2=C1C(=O)\C=C(/O2)C(O)=O)COC3=CC=CC4=C3C(=O)\C=C(/O4)C(O)=O [Cromolyn sodium]
- IC50 of cell viability: > 46 µM

SMILES: C/C=C\C(=O)N(CC)c1ccccc1C [Crotamiton]
- IC50 of cell viability: > 46 µM

SMILES: C/C=C/C=N/NC(=O)c1ccncc1 [Crotoniazida]
- IC50 of cell viability: > 46 µM

SMILES: N#CN [Cyanamide]
- IC50 of cell viability: > 46 µM

SMILES: CC1(C)S[C@H]2[C@H](NC(=O)C3(N)CCCCC3)C(=O)[N@]2[C@H]1C(O)=O [Cyclacillin]
- IC50 of cell viability: > 46 µM

SMILES: O=S(=O)(O)NC1CCCCC1 [Cyclamic acid]
- IC50 of cell viability: > 46 µM

SMILES: CN1CCN(C(c2ccccc2)c2ccccc2)CC1 [Cyclizine hydrochloride]
- IC50 of cell viability: > 46 µM

SMILES: CC1(C)\N=C(N)/N=C(/N)N1C2=CC=C(Cl)C=C2 [Cycloguanil HCl]
- IC50 of cell viability: > 46 µM

SMILES: N[S+](=O)([O-])c1cc2c(cc1Cl)N[C@@H](CC1CCCC1)N[S+]2(=O)[O-] [Cyclopenthiazide]
- IC50 of cell viability: > 46 µM

SMILES: CN(C)CCOC(=O)[C@@H](c1ccccc1)C1(O)CCCC1 [Cyclopentolate hydrochloride]
- IC50 of cell viability: > 46 µM

SMILES: O=P1(N(CCCl)CCCl)NCCCO1 (centres undefined) [Cyclophosphamide]
- IC50 of cell viability: > 46 µM

SMILES: C/C=C\C[C@H](C)[C@H](O)[C@H]1C(=O)N[C@@H](CC)C(=O)N(C)CC(=O)N(C)[C@@H](CC(C)C)C(=O)N[C@@H](C(C)C)C(=O)N(C)[C@@H](CC(C)C)C(=O)N[C@@H](C)C(=O)N[C@@H](C)C(=O)N(C)[C@@H](CC(C)C)C(=O)N(C)[C@@H](CC(C)C)C(=O)N(C)[C@@H](C(C)C)C(=O)N1C [Cyclosporin A]
- IC50 of cell viability: > 46 µM

SMILES: NC(=O)C1c2ccccc2CCc2ccccc21 [Cyheptamide]
- IC50 of cell viability: > 46 µM

SMILES: CC1(C)C(\C=C(/Cl)Cl)C1C(=O)OC(C#N)C2=CC=CC(OC3=CC=CC=C3)=C2 (centres undefined) [Cypermethrin]
- IC50 of cell viability: > 46 µM

SMILES: Cl.NCCS [Cysteamine hydrochloride]
- IC50 of cell viability: > 46 µM

SMILES: NCCS [Cysteamine]
- IC50 of cell viability: > 46 µM

SMILES: COP(=S)(OC)Oc1ccc([S+](N)(=O)[O-])cc1 [Cythioate]
- IC50 of cell viability: > 46 µM

SMILES: C[N+](C)(C)CCOP(=O)([O-])OP(=O)([O-])OCC1OC(n2ccc(N)nc2=O)[C@H](O)[C@@H]1O (some centres undefined) [Cytidine 5'-diphosphocholine sodium salt hydrate]
- IC50 of cell viability: > 46 µM

SMILES: OCC1(O)OC[C@@H](O)[C@H](O)[C@@H]1O (stereo partly drawn) [D-(-)-TAGATOSE]
- IC50 of cell viability: > 46 µM

SMILES: C[C@@H](N)C(=O)O [D-ALANINE]
- IC50 of cell viability: > 46 µM

SMILES: NC(=O)C[C@@H](N)C(=O)O [D-ASPARAGINE]
- IC50 of cell viability: > 46 µM

SMILES: N[C@H](CC(=O)O)C(=O)O [D-ASPARTIC ACID]
- IC50 of cell viability: > 46 µM

SMILES: N[C@H](CCC(=O)O)C(=O)O [D-GLUTAMIC ACID]
- IC50 of cell viability: > 46 µM

SMILES: NC(=O)CC[C@@H](N)C(=O)O [D-GLUTAMINE]
- IC50 of cell viability: > 46 µM

SMILES: O=C[C@H](O)[C@@H](O)[C@H](O)[C@H](O)CO [D-Glucose]
- IC50 of cell viability: > 46 µM

SMILES: CC(C)C[C@@H](N)C(=O)O [D-LEUCINE]
- IC50 of cell viability: > 46 µM

SMILES: O=C(CO)C(O)C(O)C(O)CO [D-LEVULOSE]
- IC50 of cell viability: > 46 µM

SMILES: C=C(C)C1CC=C(C)CC1 [D-LIMONENE]
- IC50 of cell viability: > 46 µM

SMILES: OC[C@@H](O)[C@@H](O)[C@H](O)[C@H](O)CO [D-Mannitol]
- IC50 of cell viability: > 46 µM

SMILES: CC(C)(CO)[C@@H](O)C(=O)NCCC(=O)[O-] [D-Pantothenic acid hemicalcium salt]
- IC50 of cell viability: > 46 µM

SMILES: N[C@H](CO)C(=O)O [D-SERINE]
- IC50 of cell viability: > 46 µM

SMILES: N[C@H](Cc1c[nH]c2ccccc12)C(=O)O [D-TRYPTOPHAN]
- IC50 of cell viability: > 46 µM
